According to the kinase profiling compilation of Christmann-Franck et al. (2016):

Tests used:
Assay in all cases: radiometric filter-binding kinase assay, Kinase HotSpot
Details in all cases: compound 0.5 µM; ATP 10 µM
RPS6KA3 KD1 KD2 (human) = RPS6KA3 KD1 KD2 (human) (UniProt P51812)
MAP4K2 (human) = MAP4K2 (human) (UniProt Q12851)
TAOK3 (human) = TAOK3 (human) (UniProt Q9H2K8)
CDK2 CCNA2 (human) = CDK2 CCNA2 (human) (UniProt P24941+P20248)
PRKD3 (human) = PRKD3 (human) (UniProt O94806)
STK33 (human) = STK33 (human) (UniProt Q9BYT3)
NEK11 (human) = NEK11 (human) (UniProt Q8NG66)
MAPK8 (human) = MAPK8 (human) (UniProt P45983)
PRKD1 (human) = PRKD1 (human) (UniProt Q15139)
MAP3K3 (human) = MAP3K3 (human) (UniProt Q99759)
AURKC (human) = AURKC (human) (UniProt Q9UQB9)
PTK2B (human) = PTK2B (human) (UniProt Q14289)
EPHA4 (human) = EPHA4 (human) (UniProt P54764)
PDGFRB (human) = PDGFRB (human) (UniProt P09619)
CSNK2A1 (human) = CSNK2A1 (human) (UniProt P68400)
DYRK3 (human) = DYRK3 (human) (UniProt O43781)
CAMK2D (human) = CAMK2D (human) (UniProt Q13557)
CDK6 CCND1 (human) = CDK6 CCND1 (human) (UniProt Q00534+P24385)
PRKACG (human) = PRKACG (human) (UniProt P22612)
[1] = biological target: TYK2 JH1 catalytic (human) (UniProt P29597)
BTK (human) = BTK (human) (UniProt Q06187)
CAMK1D (human) = CAMK1D (human) (UniProt Q8IU85)
AKT3 (human) = AKT3 (human) (UniProt Q9Y243)
DAPK1 (human) = DAPK1 (human) (UniProt P53355)
CAMK2A (human) = CAMK2A (human) (UniProt Q9UQM7)
FER (human) = FER (human) (UniProt P16591)
PBK (human) = PBK (human) (UniProt Q96KB5)
ACVR1B (human) = ACVR1B (human) (UniProt P36896)
SRPK2 (human) = SRPK2 (human) (UniProt P78362)
INSR (human) = INSR (human) (UniProt P06213)
SLK (human) = SLK (human) (UniProt Q9H2G2)
AXL (human) = AXL (human) (UniProt P30530)
MAP3K5 (human) = MAP3K5 (human) (UniProt Q99683)
MAP3K14 (human) = MAP3K14 (human) (UniProt Q99558)
MAP3K8 (human) = MAP3K8 (human) (UniProt P41279)
MAPK11 (human) = MAPK11 (human) (UniProt Q15759)
STK10 (human) = STK10 (human) (UniProt O94804)
LCK (human) = LCK (human) (UniProt P06239)
ROCK1 (human) = ROCK1 (human) (UniProt Q13464)
STK38 (human) = STK38 (human) (UniProt Q15208)
CSK (human) = CSK (human) (UniProt P41240)
PAK6 (human) = PAK6 (human) (UniProt Q9NQU5)
Chain of PAK6 (human) (Q9NQU5 whole entry, looked up): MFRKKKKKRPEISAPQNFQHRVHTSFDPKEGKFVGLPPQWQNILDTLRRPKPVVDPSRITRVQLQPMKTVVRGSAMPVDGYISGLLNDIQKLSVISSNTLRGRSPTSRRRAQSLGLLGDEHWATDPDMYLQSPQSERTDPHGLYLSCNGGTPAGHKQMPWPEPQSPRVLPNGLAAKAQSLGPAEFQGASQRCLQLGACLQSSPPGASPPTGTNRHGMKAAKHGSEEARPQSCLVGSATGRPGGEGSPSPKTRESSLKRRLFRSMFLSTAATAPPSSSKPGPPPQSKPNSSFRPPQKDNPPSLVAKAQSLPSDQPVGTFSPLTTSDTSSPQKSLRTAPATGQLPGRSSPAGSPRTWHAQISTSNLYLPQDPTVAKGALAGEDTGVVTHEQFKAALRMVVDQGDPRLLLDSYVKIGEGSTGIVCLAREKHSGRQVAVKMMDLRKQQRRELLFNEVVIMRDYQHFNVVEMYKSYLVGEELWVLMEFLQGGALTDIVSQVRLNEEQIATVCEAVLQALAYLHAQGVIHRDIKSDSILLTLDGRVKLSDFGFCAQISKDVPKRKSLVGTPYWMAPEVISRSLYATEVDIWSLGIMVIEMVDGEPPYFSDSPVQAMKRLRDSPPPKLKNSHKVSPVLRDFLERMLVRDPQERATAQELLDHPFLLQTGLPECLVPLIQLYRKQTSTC

Chain of MAP3K8 (human) (P41279 whole entry, looked up): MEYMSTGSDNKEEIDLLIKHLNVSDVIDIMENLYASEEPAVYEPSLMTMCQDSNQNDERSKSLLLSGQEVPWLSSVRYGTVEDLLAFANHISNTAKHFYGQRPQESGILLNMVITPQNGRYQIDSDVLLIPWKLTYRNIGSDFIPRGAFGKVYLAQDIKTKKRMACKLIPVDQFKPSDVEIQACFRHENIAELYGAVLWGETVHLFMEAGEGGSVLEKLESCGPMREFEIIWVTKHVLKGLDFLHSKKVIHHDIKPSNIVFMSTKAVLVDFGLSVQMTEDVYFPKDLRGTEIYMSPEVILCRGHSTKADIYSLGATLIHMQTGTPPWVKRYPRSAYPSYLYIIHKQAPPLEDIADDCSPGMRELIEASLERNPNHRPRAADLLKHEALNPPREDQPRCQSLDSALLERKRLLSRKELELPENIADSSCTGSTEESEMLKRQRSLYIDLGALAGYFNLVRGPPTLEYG
Chain of CDK2 CCNA2 (human) (P20248 whole entry, looked up, other chains not shown): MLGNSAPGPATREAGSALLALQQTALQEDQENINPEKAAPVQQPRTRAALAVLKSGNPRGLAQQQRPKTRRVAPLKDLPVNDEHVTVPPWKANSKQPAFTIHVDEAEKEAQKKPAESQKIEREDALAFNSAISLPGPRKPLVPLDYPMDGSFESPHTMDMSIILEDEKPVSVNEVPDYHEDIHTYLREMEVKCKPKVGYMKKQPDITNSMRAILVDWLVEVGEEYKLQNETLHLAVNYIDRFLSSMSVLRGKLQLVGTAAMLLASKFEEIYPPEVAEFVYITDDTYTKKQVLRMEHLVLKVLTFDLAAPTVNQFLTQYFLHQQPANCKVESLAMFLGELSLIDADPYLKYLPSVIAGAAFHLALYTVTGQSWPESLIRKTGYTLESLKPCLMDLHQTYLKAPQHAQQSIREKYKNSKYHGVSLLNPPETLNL
Chain of TYK2 JH1 catalytic (human) (P29597 whole entry, looked up): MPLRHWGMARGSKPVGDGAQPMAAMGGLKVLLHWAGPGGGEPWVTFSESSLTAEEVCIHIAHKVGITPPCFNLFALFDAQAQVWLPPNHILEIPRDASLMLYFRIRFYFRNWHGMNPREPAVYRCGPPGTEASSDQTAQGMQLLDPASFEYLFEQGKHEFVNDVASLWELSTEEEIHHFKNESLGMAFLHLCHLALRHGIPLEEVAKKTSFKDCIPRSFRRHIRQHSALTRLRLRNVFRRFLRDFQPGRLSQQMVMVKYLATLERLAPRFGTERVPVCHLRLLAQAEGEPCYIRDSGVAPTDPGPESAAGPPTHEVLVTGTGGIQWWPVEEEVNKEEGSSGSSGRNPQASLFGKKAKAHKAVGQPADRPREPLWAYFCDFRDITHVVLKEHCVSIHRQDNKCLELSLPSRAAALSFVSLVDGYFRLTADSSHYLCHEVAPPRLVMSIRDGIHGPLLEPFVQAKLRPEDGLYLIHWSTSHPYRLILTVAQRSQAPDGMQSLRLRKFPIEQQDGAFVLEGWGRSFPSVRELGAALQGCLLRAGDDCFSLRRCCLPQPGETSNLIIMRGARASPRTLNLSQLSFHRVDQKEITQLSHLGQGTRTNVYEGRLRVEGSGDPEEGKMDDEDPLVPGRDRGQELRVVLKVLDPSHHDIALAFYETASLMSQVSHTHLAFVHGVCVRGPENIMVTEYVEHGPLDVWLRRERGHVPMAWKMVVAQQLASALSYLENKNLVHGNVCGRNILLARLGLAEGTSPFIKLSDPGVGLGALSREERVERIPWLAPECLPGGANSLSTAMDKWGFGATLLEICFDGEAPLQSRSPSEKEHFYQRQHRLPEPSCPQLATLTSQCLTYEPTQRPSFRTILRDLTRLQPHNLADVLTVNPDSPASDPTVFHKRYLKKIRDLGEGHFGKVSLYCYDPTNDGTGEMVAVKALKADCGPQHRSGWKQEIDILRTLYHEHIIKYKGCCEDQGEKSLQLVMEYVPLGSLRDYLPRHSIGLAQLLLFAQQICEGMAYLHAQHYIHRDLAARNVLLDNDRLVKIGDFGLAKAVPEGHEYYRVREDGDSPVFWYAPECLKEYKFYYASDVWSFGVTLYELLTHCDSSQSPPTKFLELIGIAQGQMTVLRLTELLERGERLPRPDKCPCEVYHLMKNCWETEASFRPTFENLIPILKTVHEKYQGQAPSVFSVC
Chain of RPS6KA3 KD1 KD2 (human) (P51812 whole entry, looked up): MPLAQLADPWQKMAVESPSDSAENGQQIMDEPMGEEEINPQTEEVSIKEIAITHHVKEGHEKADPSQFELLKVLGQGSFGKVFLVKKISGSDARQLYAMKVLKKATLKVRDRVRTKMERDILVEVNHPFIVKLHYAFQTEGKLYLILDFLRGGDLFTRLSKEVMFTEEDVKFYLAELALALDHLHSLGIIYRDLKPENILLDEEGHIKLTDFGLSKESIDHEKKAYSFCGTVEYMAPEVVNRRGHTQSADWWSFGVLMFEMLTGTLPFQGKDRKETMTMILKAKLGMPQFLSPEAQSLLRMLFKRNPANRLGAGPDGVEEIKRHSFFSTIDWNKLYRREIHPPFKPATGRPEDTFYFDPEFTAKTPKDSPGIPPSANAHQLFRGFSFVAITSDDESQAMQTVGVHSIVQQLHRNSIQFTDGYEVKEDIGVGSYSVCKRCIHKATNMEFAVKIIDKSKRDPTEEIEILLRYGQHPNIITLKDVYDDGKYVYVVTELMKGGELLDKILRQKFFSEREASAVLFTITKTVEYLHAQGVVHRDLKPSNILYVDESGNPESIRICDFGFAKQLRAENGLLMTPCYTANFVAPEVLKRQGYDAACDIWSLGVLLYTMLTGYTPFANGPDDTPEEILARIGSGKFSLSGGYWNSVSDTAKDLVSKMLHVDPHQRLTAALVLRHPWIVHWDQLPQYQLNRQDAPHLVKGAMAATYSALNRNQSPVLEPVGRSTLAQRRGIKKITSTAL
Chain of CSK (human) (P41240 whole entry, looked up): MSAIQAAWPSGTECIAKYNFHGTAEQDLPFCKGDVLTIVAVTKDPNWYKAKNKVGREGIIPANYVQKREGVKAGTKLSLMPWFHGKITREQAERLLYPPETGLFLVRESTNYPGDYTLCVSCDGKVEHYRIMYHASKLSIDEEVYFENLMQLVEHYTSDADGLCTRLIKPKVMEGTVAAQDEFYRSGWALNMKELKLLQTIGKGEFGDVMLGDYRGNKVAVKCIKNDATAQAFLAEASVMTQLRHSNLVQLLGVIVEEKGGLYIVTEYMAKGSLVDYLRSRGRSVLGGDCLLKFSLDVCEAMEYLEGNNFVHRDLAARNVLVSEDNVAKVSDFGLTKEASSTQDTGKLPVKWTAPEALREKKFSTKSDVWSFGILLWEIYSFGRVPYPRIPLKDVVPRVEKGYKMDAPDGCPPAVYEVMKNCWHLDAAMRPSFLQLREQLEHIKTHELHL
Chain of STK10 (human) (O94804 whole entry, looked up): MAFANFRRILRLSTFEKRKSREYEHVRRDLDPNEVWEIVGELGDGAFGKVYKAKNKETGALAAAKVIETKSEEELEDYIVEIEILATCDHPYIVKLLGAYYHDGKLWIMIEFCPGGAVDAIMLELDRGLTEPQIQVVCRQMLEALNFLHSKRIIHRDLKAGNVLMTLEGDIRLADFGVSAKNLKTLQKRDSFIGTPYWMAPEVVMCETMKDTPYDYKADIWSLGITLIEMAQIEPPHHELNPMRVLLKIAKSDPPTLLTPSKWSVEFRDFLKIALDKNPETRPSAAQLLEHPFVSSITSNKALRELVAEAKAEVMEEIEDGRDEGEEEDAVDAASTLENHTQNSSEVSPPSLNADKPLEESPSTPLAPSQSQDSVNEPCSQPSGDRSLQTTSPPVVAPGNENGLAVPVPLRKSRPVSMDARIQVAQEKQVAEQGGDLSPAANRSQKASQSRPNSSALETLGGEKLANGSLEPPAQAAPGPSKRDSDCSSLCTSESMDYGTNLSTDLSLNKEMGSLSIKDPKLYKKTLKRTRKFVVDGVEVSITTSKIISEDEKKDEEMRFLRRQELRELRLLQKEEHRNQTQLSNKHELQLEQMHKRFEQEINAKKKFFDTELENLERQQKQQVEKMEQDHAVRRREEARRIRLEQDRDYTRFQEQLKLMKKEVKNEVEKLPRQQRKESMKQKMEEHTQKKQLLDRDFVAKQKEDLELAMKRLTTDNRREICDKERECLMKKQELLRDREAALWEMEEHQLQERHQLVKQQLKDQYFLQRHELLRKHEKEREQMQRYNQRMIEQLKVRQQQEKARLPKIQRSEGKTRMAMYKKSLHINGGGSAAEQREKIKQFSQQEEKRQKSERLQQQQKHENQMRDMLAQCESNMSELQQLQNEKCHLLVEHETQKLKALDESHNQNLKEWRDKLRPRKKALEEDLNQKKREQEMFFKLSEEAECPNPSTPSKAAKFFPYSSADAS

O=C1NC(=O)c2c1c1c3ccccc3n3c1c1c2c2ccccc2n1C1CCC3O1
residual activity (RPS6KA3 KD1 KD2 (human)): 2.35% | residual activity (MAP4K2 (human)): 3.75% | residual activity (TAOK3 (human)): 24.5% | residual activity (CDK2 CCNA2 (human)): 15.6% | residual activity (PRKD3 (human)): -0.0451% | residual activity (STK33 (human)): 12.7% | residual activity (NEK11 (human)): 60.6% | residual activity (MAPK8 (human)): 98.5% | residual activity (PRKD1 (human)): 1.89% | residual activity (MAP3K3 (human)): 18.4% | residual activity (AURKC (human)): 36.5% | residual activity (PTK2B (human)): 41.5% | residual activity (EPHA4 (human)): 91.4% | residual activity (PDGFRB (human)): 19.1% | residual activity (CSNK2A1 (human)): 16.7% | residual activity (DYRK3 (human)): 16.6% | residual activity (CAMK2D (human)): 7.03% | residual activity (CDK6 CCND1 (human)): 6.06% | residual activity (PRKACG (human)): 39.8% | residual activity [1]: 4.32% | residual activity (BTK (human)): 43.3% | residual activity (CAMK1D (human)): 33.6% | residual activity (AKT3 (human)): 27.1% | residual activity (DAPK1 (human)): 32.7% | residual activity (CAMK2A (human)): 2.84% | residual activity (FER (human)): 5.39% | residual activity (PBK (human)): 39.9% | residual activity (ACVR1B (human)): 113% | residual activity (SRPK2 (human)): 107% | residual activity (INSR (human)): 17.2% | residual activity (SLK (human)): 26% | residual activity (AXL (human)): 38.1% | residual activity (MAP3K5 (human)): 56.2% | residual activity (MAP3K14 (human)): 134% | residual activity (MAP3K8 (human)): 94.6% | residual activity (MAPK11 (human)): 108% | residual activity (STK10 (human)): 9.25% | residual activity (LCK (human)): 36.2% | residual activity (ROCK1 (human)): 88.7% | residual activity (STK38 (human)): 46.2% | residual activity (CSK (human)): 79.7% | residual activity (PAK6 (human)): 85.4%

CCCC(=O)Oc1ccc2[nH]c(C(=O)c3cc4ccccc4[nH]3)cc2c1
residual activity (RPS6KA3 KD1 KD2 (human)): 97.5% | residual activity (MAP4K2 (human)): 95.3% | residual activity (TAOK3 (human)): 86.7% | residual activity (CDK2 CCNA2 (human)): 88.9% | residual activity (PRKD3 (human)): 102% | residual activity (STK33 (human)): 92.9% | residual activity (NEK11 (human)): 101% | residual activity (MAPK8 (human)): 84% | residual activity (PRKD1 (human)): 88.7% | residual activity (MAP3K3 (human)): 91.9% | residual activity (AURKC (human)): 94.9% | residual activity (PTK2B (human)): 87.6% | residual activity (EPHA4 (human)): 99.3% | residual activity (PDGFRB (human)): 91.2% | residual activity (CSNK2A1 (human)): 99.8% | residual activity (DYRK3 (human)): 92.6% | residual activity (CAMK2D (human)): 111% | residual activity (CDK6 CCND1 (human)): 92.7% | residual activity (PRKACG (human)): 99.8% | residual activity [1]: 90.7% | residual activity (BTK (human)): 88.2% | residual activity (CAMK1D (human)): 103% | residual activity (AKT3 (human)): 101% | residual activity (DAPK1 (human)): 85.8% | residual activity (CAMK2A (human)): 87% | residual activity (FER (human)): 101% | residual activity (PBK (human)): 104% | residual activity (ACVR1B (human)): 98.9% | residual activity (SRPK2 (human)): 89.4% | residual activity (INSR (human)): 101% | residual activity (SLK (human)): 98.9% | residual activity (AXL (human)): 103% | residual activity (MAP3K5 (human)): 103% | residual activity (MAP3K14 (human)): 109% | residual activity (MAP3K8 (human)): 97.6% | residual activity (MAPK11 (human)): 87.7% | residual activity (STK10 (human)): 94.3% | residual activity (LCK (human)): 94% | residual activity (ROCK1 (human)): 105% | residual activity (STK38 (human)): 96.9% | residual activity (CSK (human)): 83.5% | residual activity (PAK6 (human)): 94.5%

Cc1[nH]c(/C=C2\C(=O)Nc3ccc(S(=O)(=O)N(C)c4cccc(Cl)c4)cc32)c(C)c1C(=O)N1CCN(C)CC1
residual activity (RPS6KA3 KD1 KD2 (human)): 76.8% | residual activity (MAP4K2 (human)): 53.5% | residual activity (TAOK3 (human)): 61.5% | residual activity (CDK2 CCNA2 (human)): 103% | residual activity (PRKD3 (human)): 42.7% | residual activity (STK33 (human)): 67.9% | residual activity (NEK11 (human)): 103% | residual activity (MAPK8 (human)): 86.9% | residual activity (PRKD1 (human)): 61.8% | residual activity (MAP3K3 (human)): 63.6% | residual activity (AURKC (human)): 37.9% | residual activity (PTK2B (human)): 57.7% | residual activity (EPHA4 (human)): 80.7% | residual activity (PDGFRB (human)): 76.4% | residual activity (CSNK2A1 (human)): 78.8% | residual activity (CAMK2D (human)): 68.4% | residual activity (CDK6 CCND1 (human)): 84.8% | residual activity (PRKACG (human)): 111% | residual activity [1]: 75.1% | residual activity (BTK (human)): 93.1% | residual activity (CAMK1D (human)): 138% | residual activity (AKT3 (human)): 107% | residual activity (DAPK1 (human)): 106% | residual activity (CAMK2A (human)): 73.8% | residual activity (FER (human)): 81% | residual activity (PBK (human)): 104% | residual activity (ACVR1B (human)): 102% | residual activity (SRPK2 (human)): 60.5% | residual activity (INSR (human)): 98.8% | residual activity (SLK (human)): 13.6% | residual activity (AXL (human)): 66.5% | residual activity (MAP3K5 (human)): 105% | residual activity (MAP3K14 (human)): 109% | residual activity (MAP3K8 (human)): 82.9% | residual activity (MAPK11 (human)): 103% | residual activity (STK10 (human)): 9.05% | residual activity (LCK (human)): 29.3% | residual activity (ROCK1 (human)): 84% | residual activity (STK38 (human)): 102% | residual activity (CSK (human)): 78.2% | residual activity (PAK6 (human)): 108%
